The source of these data is ChEMBL document CHEMBL6087405, “Discovery and optimization of anthraquinone derivatives containing substituted bisbenzyloxy groups as a novel scaffold damaged endoplasmic reticulum and against hepatocellular carcinoma cells” (Bioorg Med Chem, 2024).

Each structure is given as a SMILES string. The source made the active and inactive calls. The rule behind the calls is not given here.

The test system of assay [1] is Huh-7. Put plainly: Antiproliferative activity against human Huh-7 cells measured after 48 hrs by MTT assay. In kind it is functional, cell-based. The following applies: Huh-7, 48 h.
The subject of assay [2] is A549. Put plainly: Antiproliferative activity against human A549 cells measured after 48 hrs by MTT assay. Particulars: A549, 48 h. The assay is classed as functional, cell-based.
Assay [3] concerns Huh-7. The assay can be described thus: Induction of ER stress in human Huh-7 cells assessed as increase in PERK protein level at 2 to 4 uM incubated for 48 hrs by Western blot analysis. In kind it is functional, cell-based. Particulars: dose 2-4 µM.
For assay [4], the system named is Huh-7. The assay can be described thus: Induction of ER stress in human Huh-7 cells assessed as increase in GRP78 protein level at 2 to 4 uM incubated for 48 hrs by Western blot analysis. The assay is classed as functional, cell-based. Particulars: dose 2-4 µM.
In assay [5] the test system is Huh-7. The assay can be described thus: Induction of ER stress in human Huh-7 cells assessed as increase in CHOP protein level at 2 to 4 uM incubated for 48 hrs by Western blot analysis. Particulars: dose 2-4 µM. In kind it is functional, cell-based.
For assay [6], the system named is Huh-7. Put plainly: Induction of ER stress in human Huh-7 cells assessed as increase in IRE1 protein level at 4 uM incubated for 48 hrs in presence of 4pba by Western blot analysis. In kind it is functional, cell-based.
The test system of assay [7] is Huh-7. Put plainly: Induction of ER stress in human Huh-7 cells assessed as increase in GRP78 protein level at 4 uM incubated for 48 hrs in presence of 4pba by Western blot analysis. In kind it is functional, cell-based.
For assay [8], the system named is Huh-7. Put plainly: Upregulation of CRT expression level in human Huh-7 cells at 2 to 4 uM measured after 48 hrs by Western blot analysis. The assay is classed as functional, cell-based. Particulars: dose 2-4 µM.
Assay [9] relates to Huh-7. Put plainly: Upregulation of BAK protein level in human Huh-7 cells at 2 to 4 uM by Western blot analysis. In kind it is functional, cell-based. The following applies: dose 2-4 µM.
In assay [10] the test system is Huh-7. The assay can be described thus: Upregulation of cleaved caspase-3 protein level in human Huh-7 cells at 2 to 4 uM by Western blot analysis. The assay is classed as functional, cell-based. Particulars: dose 2-4 µM.
The test system of assay [11] is Huh-7. The assay can be described thus: Induction of apoptosis in human Huh-7 cells assessed as late apoptotic cells at 4 uM measured after 48 hrs by Annexin V-PE staining based flow cytometry analysis (reference value: 2.06%). In kind it is functional.
Assay [12] relates to Mitochondrial membrane. Put plainly: Disruption of mitochondrial membrane potential in human Huh-7 cells assessed as appearance of punctate shaped mitochondria at 2 uM measured after 24 hrs by laser scanning confocal microscopic analysis. The assay is classed as cell membranes.

Consider `COc1ccc(COc2cccc3c2C(=O)c2c(OCc4ccc(OC)cc4)cc(C(=O)NCCNCCO)cc2C3=O)cc1`, for which the results for the IC50 in [1] and in [2] were 1750 nM and 2580 nM, respectively. In addition, the result in [3], in assay [4], in [5], in assay [8], in [9] and in assay [10] was Active. Further, in assay [12], the outcome was Active. In addition, the outcome in assay [6] and in assay [7] was inactive. The Activity in assay [11] is on record as 7.59%.
